Data reported in patent US10106515B2, “1-(cyclopent-2-en-1-yl)-3-(2-hydroxy-3-(arylsulfonyl)phenyl)urea derivatives as CXCR2 inhibitors” (GLAXOSMITHKLINE INTELLECTUAL PROPERTY DEVELOPMENT LIMITED, priority 2014, dated 2018).
Counter-ions that a name gives are not always drawn.

Molecular target: T1, recombinant human CXCR2 (Homo sapiens, UniProt P25025)
T1 construct: TEV protease site; Gal4-VP16 transcription factor
T1 sequence (P25025 1-360): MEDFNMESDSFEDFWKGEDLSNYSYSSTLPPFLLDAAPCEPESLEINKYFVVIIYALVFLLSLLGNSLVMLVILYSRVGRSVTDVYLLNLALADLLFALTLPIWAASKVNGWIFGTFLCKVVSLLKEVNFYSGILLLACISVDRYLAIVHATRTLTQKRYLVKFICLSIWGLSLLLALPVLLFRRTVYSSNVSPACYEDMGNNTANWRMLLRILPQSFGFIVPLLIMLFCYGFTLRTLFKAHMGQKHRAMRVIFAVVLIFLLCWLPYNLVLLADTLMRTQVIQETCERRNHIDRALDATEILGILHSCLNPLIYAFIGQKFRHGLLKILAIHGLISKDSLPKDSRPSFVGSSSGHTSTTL
Assay: CXCR2 Tango assay
Assay type: cell-based
Conditions: mean pIC50 of multiple test results; stimulated with 80 nM hCXCL1; reporter gene blue/green emission ratio; read-out: pIC50 (CXCR2 Tango assay) (converted)
Summary of the method: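 Mean pIC50 comes from sigmoidal fits of the blue/green (460/530 nm) CCF4-AM ratio, normalized between hCXCL1-stimulated and DMSO controls. Compounds in 10-point dose response were incubated overnight at 37 °C with recombinant human CXCR2 Tango cells (~10,000/well) and 80 nM hCXCL1, with reporter read-out via arrestin-TEV release of Gal4-VP16.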

Row | Structure (SMILES) | IC50 [nM]
1 | CC1=CCCC1NC(=O)Nc1ccc(Cl)c(S(=O)(=O)N2CCCC2)c1O (stereo not drawn) [Compound 116, 1-(4-chloro-2-hydroxy-3-(pyrrolidin-1-ylsulfonyl)phenyl)-3-(2-methylcyclopent-2-en-1-yl)urea] | ≤ 10
2 | CC1=CCCC1NC(=O)Nc1ccc(Cl)c(S(=O)(=O)N2CCn3ccnc3C2)c1O (stereo not drawn) [Compound 117, 1-(4-chloro-3-((5,6-dihydroimidazo [1,2-a]pyrazin-7(8H)-yl)sulfonyl)-2-hydroxyphenyl)-3-(2-methylcyclopent-2-en-1-yl)urea] | ≤ 10
3 | CC1=CCCC1NC(=O)Nc1ccc(Cl)c(S(=O)(=O)N2CCOCC2)c1O (stereo not drawn) [Compound 118, 1-(4-chloro-2-hydroxy-3-(morpholinosulfonyl)phenyl)-3-(2-methylcyclopent-2-en-1-yl)urea] | ≤ 10
4 | CCC1=CCCC1NC(=O)Nc1ccc(Cl)c(S(=O)(=O)C(C)C)c1O (stereo not drawn) [Compound 120, 1-(4-chloro-2-hydroxy-3-(isopropylsulfonyl)phenyl)-3-(2-ethylcyclopent-2-en-1-yl)urea] | ≤ 10
5 | CCN(CC)S(=O)(=O)c1c(Cl)ccc(NC(=O)NC2CCC=C2C)c1O (stereo not drawn) [Compound 121, 6-chloro-N,N-diethyl-2-hydroxy-3-(3-(2-methylcyclopent-2-en-1-yl)ureido)benzene-sulfonamide] | ≤ 10
6 | CCO[C@H]1C[C@@H](S(=O)(=O)c2c(Cl)ccc(NC(=O)N[C@@H]3CCC=C3C)c2O)C1 [Compound 124, (R)-1-(4-chloro-3-((cis-3-ethoxycyclobutyl)sulfonyl)-2-hydroxyphenyl)-3-(2-methylcyclopent-2-en-1-yl)urea] | ≤ 1
7 | CCO[C@H]1C[C@@H](S(=O)(=O)c2c(Cl)ccc(NC(=O)N[C@@H]3CCC=C3Cl)c2O)C1 [Compound 125, 1-(4-chloro-3-(((1s,3s)-3-ethoxycyclobutyl)sulfonyl)-2-hydroxyphenyl)-3-(2-chlorocyclopent-2-en-1-yl)urea] | ≤ 10
8 | CC1=CCC[C@H]1NC(=O)Nc1ccc(Cl)c(S(=O)(=O)C2CC[C@@H](N(C)C)C2)c1O (stereo partly drawn) [Compound 127, cis-1-(4-chloro-3-((3-(dimethylamino)cyclopentyl)sulfonyl)-2-hydroxyphenyl)-3-((R)-2-methylcyclopent-2-en-1-yl)urea] | ≤ 1
9 | CC1=CCCC1NC(=O)Nc1ccc(Cl)c(S(=O)(=O)[C@H]2CC[C@@H](N(C)C)CC2)c1O (stereo partly drawn) [Compound 129, 1-(4-chloro-3-(((1s,4s)-4-(dimethylamino)cyclohexyl)sulfonyl)-2-hydroxyphenyl)-3-(2-methylcyclopent-2-en-1-yl)urea, trifluoroacetic acid salt] | ≤ 1
10 | CN(C)[C@H]1CC[C@@H](S(=O)(=O)c2c(Cl)ccc(NC(=O)NC3CCC=C3Cl)c2O)CC1 (stereo partly drawn) [Compound 130, 1-(4-chloro-3-((cis-4-(dimethylamino)cyclohexyl)sulfonyl)-2-hydroxyphenyl)-3-(2-chlorocyclopent-2-en-1-yl)urea, trifluoroacetic acid salt] | ≤ 1
11 | CC1=CCCC1NC(=O)Nc1ccc(Cl)c(S(=O)(=O)[C@H]2C[C@H](CN(C)C)C2)c1O (stereo partly drawn) [Compound 131, 1-(4-chloro-3-(((1r,3r)-3-((dimethylamino)methyl)cyclobutyl)sulfonyl)-2-hydroxyphenyl)-3-(2-methylcyclopent-2-en-1-yl)urea, trifluoroacetic acid salt] | ≤ 10
12 | CN(C)C[C@H]1C[C@@H](S(=O)(=O)c2c(Cl)ccc(NC(=O)NC3CCC=C3Cl)c2O)C1 (stereo partly drawn) [Compound 132, 1-(4-chloro-3-((cis-3-((dimethylamino)methyl)cyclobutyl)sulfonyl)-2-hydroxyphenyl)-3-(2-chlorocyclopent-2-en-1-yl)urea, trifluoroacetic acid salt] | ≤ 10
13 | CC1=CCCC1NC(=O)Nc1ccc(Cl)c(S(=O)(=O)[C@H]2C[C@H](N(C)C)C2)c1O (stereo partly drawn) [Compound 133, 1-(4-chloro-3-((trans-3-(dimethylamino)cyclobutyl)sulfonyl)-2-hydroxyphenyl)-3-(2-methylcyclopent-2-en-1-yl)urea] | ≤ 10
14 | CN(C)[C@H]1C[C@H](S(=O)(=O)c2c(Cl)ccc(NC(=O)NC3CCC=C3Cl)c2O)C1 (stereo partly drawn) [Compound 134, 1-(4-chloro-3-((trans-3-(dimethylamino)cyclobutyl)sulfonyl)-2-hydroxyphenyl)-3-(2-chlorocyclopent-2-en-1-yl)urea] | ≤ 10
15 | CC1=CCCC1NC(=O)Nc1ccc(Cl)c(S(=O)(=O)N(C)C)c1O (stereo not drawn) [Compound 137, 6-chloro-2-hydroxy-N,N-dimethyl-3-(3-(2-methylcyclopent-2-en-1-yl)ureido)benzene-sulfonamide] | ≤ 10
16 | O=C(O)C(F)(F)F.[2H]C([2H])([2H])N1CCC(C)(S(=O)(=O)c2c(Cl)ccc(NC(=O)N[C@@H]3CCC=C3C)c2O)CC1 [Compound 139, (R)-1-(4-chloro-2-hydroxy-3-((4-methyl-1-(d3-methyl)piperidin-4-yl)sulfonyl)phenyl)-3-(2-methylcyclopent-2-en-1-yl)urea, trifluoroacetic acid salt] | ≤ 10
17 | CC1=CCCC1NC(=O)Nc1ccc(Cl)c(S(=O)(=O)C2CC3(CCN(C)CC3)C2)c1O (stereo not drawn) [Compound 140, 1-(4-chloro-2-hydroxy-3-((7-methyl-7-azaspiro[3.5]nonan-2-yl)sulfonyl)phenyl)-3-(2-methylcyclopent-2-en-1-yl)urea] | ≤ 10
18 | CO[C@@H]1COCC[C@@H]1S(=O)(=O)c1c(Cl)ccc(NC(=O)N[C@@H]2CCC=C2C)c1O [Compound 145, 1-(4-chloro-2-hydroxy-3-(((3R,4S)-3-methoxytetrahydro-2H-pyran-4-yl)sulfonyl)phenyl)-3-((R)-2-methylcyclopent-2-en-1-yl)urea] | ≤ 10
19 | CO[C@H]1C[C@@H](S(=O)(=O)c2c(Cl)ccc(NC(=O)NC3C=CCC3)c2O)C1 (stereo partly drawn) [Compound 147, 1-(4-chloro-2-hydroxy-3-((cis-3-methoxycyclobutyl)sulfonyl)phenyl)-3-(cyclopent-2-en-1-yl)urea] | ≤ 10
20 | CO[C@H]1C[C@@H](S(=O)(=O)c2c(Cl)ccc(NC(=O)NC3CCC=C3C)c2O)C1 (stereo partly drawn) [Compound 148, 1-(4-chloro-2-hydroxy-3-((cis-3-methoxycyclobutyl)sulfonyl)phenyl)-3-(2-methylcyclopent-2-en-1-yl)urea] | ≤ 10
21 | CO[C@H]1C[C@@H](S(=O)(=O)c2c(Cl)ccc(NC(=O)NC3CCC=C3Cl)c2O)C1 (stereo partly drawn) [Compound 149, 1-(4-chloro-2-hydroxy-3-((cis-3-methoxycyclobutyl)sulfonyl)phenyl)-3-(2-chlorocyclopent-2-en-1-yl)urea] | ≤ 10
22 | COC[C@H]1C[C@H](S(=O)(=O)c2c(Cl)ccc(NC(=O)NC3CCC=C3C)c2O)C1 (stereo partly drawn) [Compound 153, 1-(4-chloro-2-hydroxy-3-((trans-3-(methoxymethyl)cyclobutyl)sulfonyl)phenyl)-3-(2-methylcyclopent-2-en-1-yl)urea] | ≤ 10
23 | COC1CCN(S(=O)(=O)c2c(Cl)ccc(NC(=O)NC3CCC=C3C)c2O)CC1 (stereo not drawn) [Compound 154, 1-(4-chloro-2-hydroxy-3-((4-methoxypiperidin-1-yl)sulfonyl)phenyl)-3-(2-methylcyclopent-2-en-1-yl)urea] | ≤ 10
24 | COCC(C)(C)S(=O)(=O)c1c(Cl)ccc(NC(=O)NC2CCC=C2C)c1O (stereo not drawn) [Compound 156, 1-(4-chloro-2-hydroxy-3-((1-methoxy-2-methylpropan-2-yl)sulfonyl)phenyl)-3-(2-methylcyclopent-2-en-1-yl)urea] | ≤ 10
